From patent US7625948B2, “Ester compound and medicinal use thereof” (Japan Tobacco Inc., priority 2002, dated 2009)
Like-named read-outs stand apart in the source and are kept apart here.

What was measured:
[1] = molecular target: T1, Microsomal triglyceride transfer protein (MTP) from bovine liver (Bos taurus, UniProt P55156); test: Test Example 1: inhibition of interliposomal triglyceride (TG) transfer activity by MTP (also used for metabolites in Test Example 8); type: biochemical
T1 construct: from tissue; host or cells: bovine liver
T1 sequence (P55156 12-887): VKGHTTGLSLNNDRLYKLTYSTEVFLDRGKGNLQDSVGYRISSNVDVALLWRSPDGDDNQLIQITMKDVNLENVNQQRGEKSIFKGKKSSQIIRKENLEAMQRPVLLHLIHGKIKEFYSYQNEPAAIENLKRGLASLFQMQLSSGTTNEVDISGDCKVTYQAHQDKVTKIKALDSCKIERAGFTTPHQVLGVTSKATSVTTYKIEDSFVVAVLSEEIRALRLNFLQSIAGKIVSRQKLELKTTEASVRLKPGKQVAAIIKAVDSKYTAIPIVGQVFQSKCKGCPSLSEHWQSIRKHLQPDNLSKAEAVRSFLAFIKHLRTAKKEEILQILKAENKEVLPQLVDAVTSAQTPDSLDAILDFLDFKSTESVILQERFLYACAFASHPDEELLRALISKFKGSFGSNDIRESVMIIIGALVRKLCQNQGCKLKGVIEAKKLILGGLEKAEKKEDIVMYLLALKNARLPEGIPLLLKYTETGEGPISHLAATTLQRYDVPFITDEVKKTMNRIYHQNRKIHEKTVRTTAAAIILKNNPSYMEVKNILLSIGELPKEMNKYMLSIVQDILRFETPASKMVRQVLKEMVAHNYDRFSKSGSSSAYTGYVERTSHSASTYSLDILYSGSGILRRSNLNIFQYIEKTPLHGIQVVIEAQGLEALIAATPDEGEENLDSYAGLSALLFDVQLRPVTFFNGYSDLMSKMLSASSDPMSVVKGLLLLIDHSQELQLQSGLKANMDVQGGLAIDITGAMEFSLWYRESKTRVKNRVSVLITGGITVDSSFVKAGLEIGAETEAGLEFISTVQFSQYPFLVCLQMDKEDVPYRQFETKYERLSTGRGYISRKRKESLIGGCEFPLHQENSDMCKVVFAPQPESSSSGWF
T1 sequence (P05307 21-510 partner): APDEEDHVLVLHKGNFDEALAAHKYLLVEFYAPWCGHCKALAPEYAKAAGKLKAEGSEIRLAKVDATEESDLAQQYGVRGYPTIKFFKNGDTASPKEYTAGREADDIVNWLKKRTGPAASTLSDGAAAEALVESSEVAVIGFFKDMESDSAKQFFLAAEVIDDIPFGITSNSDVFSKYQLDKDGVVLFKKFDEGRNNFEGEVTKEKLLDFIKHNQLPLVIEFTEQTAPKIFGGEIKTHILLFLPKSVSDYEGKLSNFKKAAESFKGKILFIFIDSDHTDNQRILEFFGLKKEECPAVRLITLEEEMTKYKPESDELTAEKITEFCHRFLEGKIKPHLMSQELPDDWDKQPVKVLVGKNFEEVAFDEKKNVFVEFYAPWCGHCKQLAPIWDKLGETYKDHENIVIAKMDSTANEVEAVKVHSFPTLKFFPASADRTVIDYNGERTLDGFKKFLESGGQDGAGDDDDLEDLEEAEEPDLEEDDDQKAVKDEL
Description: Inhibition of Interliposomal Triglyceride (TG) Transfer Activity by MTP
Microsomal triglyceride transfer protein (MTP) from bovine liver was partially purified in such a way described below. A buffer (50 mM Tris, 250 mM sucrose, 1 mM EDTA, 0.02% NaN3 (pH 7.4)) for making a homogenate preparation was added to bovine liver, and the mixture was homogenated under ice-cooling, then centrifuged at 10,000×g (4° C., 30 minutes). The supernatant was adjusted to pH 5.1 with hydrochloric acid, and stirred for 30 minutes. The solution was further centrifuged at 10,000×g (4° C., 30 minutes), and 1 mM Tris buffer was added to the precipitated residue, and the mixture was adjusted to pH 8.6 with sodium hydroxide. After addition of 2.7M ammonium sulfate solution, the mixture was stirred for 30 minutes, then centrifuged at 10,000×g (4° C., 40 minutes). The resulting supernatant was served as a crude extraction fraction of MTP and stored at −80° C. under freezing. In its practical use, the crude extraction fraction of MTP was purified by column chromatography on diethylaminoethyl (DEAE) Sepharose using FPLC (Fast Performance Liquid Chromatography) system, and the purified MTP was used for the test.
Small unilamellar-vesicle (SUV) liposome (donor, 0.25 mol % triolein, 5 mol % cardiolipin) labeled with ^14C-triolein and non-labeled SUV liposome (acceptor, 0.25 mol % triolein) were prepared. A fixed amount of donor and acceptor, and MTP were mixed with a sample dissolved in DMSO or with DMSO. The mixture was incubated in a 15 mM Tris hydrochloride buffer (pH 7.4) containing 40 mM sodium chloride, 1 mM EDTA (ethylenediaminetetraacetic acid), 0.02% NaN3 and 0.5% bovine serum albumin at 37° C. for one hour. After completion of the incubation, a suspension of DEAE cellulose (50% v/v) in 15 mM Tris hydrochloride buffer (pH 7.4) was added to the above solution, and the mixture was centrifuged to separate the donor and the acceptor. The radioactivity in the acceptor was measured by liquid scintillation counter. The value obtained by subtracting the radioactivity in the blank from the amount of radioactivity in the acceptor of a DMSO group was determined as MTP-mediated TG transfer activity, and it was compared with the value obtained by subtracting the radioactivity in the blank from the radioactivity in a sample group. The blank was prepared by adding 15 mM Tris-HCl buffer (pH 7.4) in place of MTP. Inhibition rate (%) was calculated from the values obtained according to the following equation.
Inhibition rate (%)=100×(1 minus ((radioactivity of sample group minus radioactivity of blank group)/(radioactivity of DMSO group minus radioactivity of blank group))).
50% Inhibition rate (IC50) was determined on the basis of the above equation.
Inhibitory Activity on MTP and apo B Secretion Inhibition by Metabolites
In a similar manner to Test Examples 1 and 2, the activity of metabolites was assayed.

HepG2 cells = test: Test Example 2: inhibition of apolipoprotein B secretion from HepG2 cells, ELISA (also used for metabolites in Test Example 8); type: cell-based; settings: Homo sapiens
How it was run: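 HepG2 cells cultured 24 h, then exposed 24 h to compounds or metabolites in medium with 0.5% DMSO. Secreted apo B in supernatant quantified by sandwich ELISA (HRP, ABTS, 405 nm) against purified human apo B standard; % inhibition vs DMSO group, IC50 derived.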

[2] = MTP-mediated 14C-triolein transfer between liposomes, 37° C., one hour, read-out: Test Example 1 MTP inhibition IC50
[3] = 24 hours, apo B in supernatant by ELISA, read-out: Test Example 2 Inhibition of apo B secretion IC50

SMILES	IC50 [1, 2]	IC50 (HepG2 cells; [3])	IC50 ([1]; main metabolites of the compounds (Test Example 8), read-out: MTP inhibition IC50)	IC50 (HepG2 cells; main metabolites of the compounds (Test Example 8), read-out: Inhibition of apo B secretion IC50)
CCOC(=O)C(CCOC(=O)Cc1cccc(NC(=O)c2ccccc2-c2ccc(C(F)(F)F)cc2)c1C)(C(=O)OCC)c1ccccc1 [Example 5, 2-[2-(2-{2-methyl-3-[(4′-trifluoromethylbiphenyl-2-carbonyl)amino]phenyl}acetoxy)ethyl]-2-phenylmalonic acid diethyl ester]	3.1 nM	19 nM	–	–
CCNC(=O)C(COC(=O)Cc1ccc(NC(=O)c2ccccc2C2CCCCC2)cc1)(C(=O)NCC)c1ccccc1 [Example 1-69]	9.1 nM	90 nM	–	–
O=C(Cc1ccc(NC(=O)c2ccccc2-c2ccc(C(F)(F)F)cc2)cc1)OCC(C(=O)NCC(F)(F)F)c1ccccc1 (stereo not shown) [Example 1-8]	37.5 nM	720 nM	–	–
CCOC(=O)C(COC(=O)Cc1ccc(NC(=O)c2ccccc2-c2ccc(C(F)(F)F)cc2)cc1)(C(=O)OCC)c1ccccn1 [Example 1-37]	3.5 nM	47 nM	–	–
CCOC(=O)C(COC(=O)Cc1ccc(NC(=O)c2ccccc2-c2ccc(C(F)(F)F)cc2)cc1)(C(=O)OCC)C1CCCCC1 [Example 1-31]	84.5 nM	61 nM	–	–
CCNC(=O)C(CCOC(=O)Cc1ccc(NC(=O)c2ccccc2-c2ccc(C(F)(F)F)cc2)cc1)(C(=O)NCC)c1ccccc1 [Example 1-48]	3.2 nM	9.7 nM	–	–
CC(C(=O)OCC1(C(=O)NCC(F)(F)F)c2ccccc2-c2ccccc21)c1ccc(NC(=O)c2ccccc2-c2ccc(C(F)(F)F)cc2)cc1 (stereo not shown) [Example 1-7]	7.55 nM	330 nM	–	–
CCCNC(=O)C(CO)(C(=O)NCCC)c1ccccc1	–	–	> 1000 nM	> 10000 nM
CCOC(=O)C(COC(=O)Cc1ccc(NC(=O)c2ccccc2-c2ccc(C(F)(F)F)cc2)cc1)(C(=O)OCC)c1cccnc1 [Example 1-38]	6 nM	320 nM	–	–
CC(C)OC(=O)C(COC(=O)Cc1ccc(NC(=O)c2ccccc2-c2ccc(C(F)(F)F)cc2)cc1)(C(=O)OC(C)C)c1ccccc1 [Example 1-11]	32 nM	22 nM	–	–
CCNC(=O)C(COC(=O)Cc1ccc(NC(=O)c2ccccc2-c2ccc(C(F)(F)F)cc2)c(C(C)C)c1)(C(=O)NCC)c1ccccc1 [Example 1-79]	–	0.59 nM	–	–
CCOC(=O)C(COC(=O)Cc1ccc(NC(=O)c2ccc(OC)cc2-c2ccc(C(F)(F)F)cc2)c(C(=O)N(C)C)c1)(C(=O)OCC)c1ccccc1 [Example 2-53]	–	4.6 nM	–	–
CCOC(=O)C(COC(=O)Cc1ccc(OC(=O)c2ccccc2-c2ccc(C(F)(F)F)cc2)c(C(=O)N(C)C)c1)(C(=O)OCC)c1ccccc1 [Example 2-96]	–	81 nM	–	–
CCOC(=O)C(COC(=O)Cc1ccc(NC(=O)c2ccccc2-c2ccc(C(F)(F)F)cc2)c(C(=O)N(C)C)c1)(C(=O)OCC)c1sccc1C [Example 2-108]	–	0.82 nM	–	–
CCOC(=O)C(COC(=O)Cc1ccc(NC(=O)c2ccccc2-c2ccc(C(F)(F)F)c(Cl)c2)c(C(=O)N(C)C)c1)(C(=O)OCC)c1ccccc1 [Example 2-62]	–	0.37 nM	–	–
CCC(=O)N(C)[C@H](COC(=O)Cc1ccc(NC(=O)c2ccccc2-c2ccc(C(F)(F)F)cc2)c(C(=O)N(C)C)c1)c1ccccc1 [Example 2-51]	–	47 nM	–	–
CCOC(=O)C(COC(=O)Cc1ccc(NC(=O)c2cccc(OC)c2-c2ccc(C(F)(F)F)cc2)c(C(=O)N(C)C)c1)(C(=O)OCC)c1ccccc1 [Example 2-85]	–	0.49 nM	–	–
CCOC(=O)C(COC(=O)Cc1ccc(NC(=O)c2ccccc2-c2ccc(C(C)=O)cc2)c(C(=O)N(C)C)c1)(C(=O)OCC)c1ccccc1 [Example 2-43]	–	9 nM	–	–
CCOC(=O)C(COC(=O)Cc1ccc(NC(=O)c2ccccc2Nc2cccc(C(F)(F)F)c2)c(C(=O)N(C)C)c1)(C(=O)OCC)c1ccccc1 [Example 2-95]	–	18 nM	–	–

The remaining lines, values ahead:

IC50 [1, 2]	IC50 (HepG2 cells; [3])	IC50 ([1]; main metabolites of the compounds (Test Example 8), read-out: MTP inhibition IC50)	IC50 (HepG2 cells; main metabolites of the compounds (Test Example 8), read-out: Inhibition of apo B secretion IC50)	SMILES
50 nM	630 nM	–	–	O=C(OCCC(C(=O)NCC(F)(F)F)(c1ccccc1)c1ccccc1)c1ccc(NC(=O)c2ccccc2-c2ccc(C(F)(F)F)cc2)cc1 [Example 6-8]
6.2 nM	86.5 nM	–	–	CCOC(=O)C(CCOC(=O)Cc1cccc(NC(=O)c2ccccc2-c2ccc(C(F)(F)F)cc2)c1)(C(=O)OCC)c1ccccc1 [Example 5-3]
14 nM	340 nM	–	–	CC(C)NC(=O)C(CCOC(=O)Cc1cccc(NC(=O)c2ccccc2-c2ccc(C(F)(F)F)cc2)c1)(C(=O)NC(C)C)c1ccccc1 [Example 5-8]
4.5 nM	5 nM	–	–	CCCNC(=O)C(CCOC(=O)Cc1cccc(NC(=O)c2ccccc2-c2ccc(C(F)(F)F)cc2)c1)(C(=O)NCCC)c1ccccc1 [Example 5-5]
2.9 nM	170 nM	–	–	CCOC(=O)C(CCOC(=O)c1ccc(NC(=O)c2ccccc2-c2ccc(C(F)(F)F)cc2)cc1Cl)(C(=O)OCC)c1ccccc1 [Example 6-16]
22 nM	870 nM	–	–	O=C(OCCC(C(=O)NCC(F)(F)F)c1ccccc1)c1ccc(NC(=O)c2ccccc2-c2ccc(C(F)(F)F)cc2)cc1 (stereo not shown) [Example 6-10]
–	59 nM	–	–	CCNC(=O)C(COC(=O)c1ccc(CNC(=O)c2ccccc2-c2ccc(C(F)(F)F)cc2)cc1)(C(=O)NCC)c1ccccc1 [Example 9-6]
–	23 nM	–	–	CCOC(=O)C(COC(=O)Cc1ccc2c(c1)C(=O)N2C(=O)c1ccccc1-c1ccc(C(F)(F)F)cc1)(C(=O)OCC)c1ccccc1 [Example 9-17]
–	0.82 nM	–	–	CCOC(=O)C(COC(=O)Cc1ccc(NC(=O)c2ccccc2-c2ccc(C(F)(F)F)cc2)c(C(=O)N(C)OC)c1)(C(=O)OCC)c1ccccc1 [Example 9-27]
–	10 nM	–	–	CCOC(=O)C(COC(=O)Cc1ccc(NC(=O)c2ccccc2-c2ccc(C(F)(F)F)cc2)c(N(CC)CC)c1)(C(=O)OCC)c1ccccc1 [Example 4-8]
–	7.5 nM	–	–	CCOC(=O)C(COC(=O)Cc1ccc(NC(=O)c2ccccc2-c2ccc(C(F)(F)F)cc2)c(N(C)C)c1)(C(=O)OCC)c1ccccc1 [Example 4-6]
